Reference: patent US11970460B1, “4-(4,5-bis(4-bromophenyl)-2-phenyl-1H-imidazol-1-yl)benzoic acid as an antimicrobial compound” (KING FAISAL UNIVERSITY, priority 2023, dated 2024)

How the values were obtained:
Aspergillus flavus = experiment: Agar plate disc-diffusion, antifungal activity (inhibition zone); assay type: cell-based; settings: Sabouraud's dextrose agar, 37° C., 72 h
Protocol: (§1) The agar plate disc-diffusion method was applied. […] The discs were then placed onto the surface of agar plates (nutrient agar for bacteria and Sabouraud's dextrose agar for fungi) seeded with the test organism. Each plate contained 15 mL of the agar medium, previously seeded with 0.2 mL of the broth culture of each organism pregrown for 18 hours. The plates were incubated at 37° C. for 48 h, and 72 h for fungi. The inhibition zones were measured in mm. Discs impregnated with DMSO were used as a control, and its inhibition zone was subtracted from the tested compound actual inhibition zone.

[1] = test system: Chrysosporium keratinophilum; experiment: as above; assay type: cell-based; settings: Sabouraud's dextrose agar, 37° C., 72 h
Protocol: as §1

Escherichia coli = experiment: Agar plate disc-diffusion, antibacterial activity (inhibition zone); assay type: cell-based; settings: nutrient agar, 37° C., 48 h
Protocol: as §1

Staphylococcus aureus = experiment: as above; assay type: cell-based; settings: nutrient agar, 37° C., 48 h
Protocol: as §1

Pseudomonas aeruginosa = experiment: as above; assay type: cell-based; settings: nutrient agar, 37° C., 48 h
Protocol: as §1

Bacillus cereus = experiment: as above; assay type: cell-based; settings: nutrient agar, 37° C., 48 h
Protocol: as §1

[2] = A = concentration of comp. = 10,000 μL
[3] = B = concentration of comp. = 30,000 μL
[4] = C = concentration of comp. = 50,000 μL

## O=C(O)c1ccc(-n2c(-c3ccccc3)nc(-c3ccc(Br)cc3)c2-c2ccc(Br)cc2)cc1 [V, 4-(4,5-bis(4-bromophenyl)-2-phenyl-1H-imidazol-1-yl)benzoic acid]
Aspergillus flavus; [2]
  inhibition zone, Aspergillus flavus, A: 23 mm
Aspergillus flavus; [3]
  inhibition zone, Aspergillus flavus, B: 27 mm
Aspergillus flavus; [4]
  inhibition zone, Aspergillus flavus, C: 33 mm
[1]; [2]
  inhibition zone, Chrysosporium keratinophilum, A: 27 mm
[1]; [3]
  inhibition zone, Chrysosporium keratinophilum, B: 29 mm
[1]; [4]
  inhibition zone, Chrysosporium keratinophilum, C: 48 mm
Escherichia coli; [2]
  inhibition zone, Escherichia coli, A: 28 mm
Escherichia coli; [3]
  inhibition zone, Escherichia coli, B: 35 mm
Escherichia coli; [4]
  inhibition zone, Escherichia coli, C: 50 mm
Staphylococcus aureus; [2]
  inhibition zone, Staphylococcus aureus, A: 18 mm
Staphylococcus aureus; [3]
  inhibition zone, Staphylococcus aureus, B: 21 mm
Staphylococcus aureus; [4]
  inhibition zone, Staphylococcus aureus, C: 31 mm
Pseudomonas aeruginosa; [2]
  inhibition zone, Pseudomonas aeruginosa, A: 25 mm
Pseudomonas aeruginosa; [3]
  inhibition zone, Pseudomonas aeruginosa, B: 28 mm
Pseudomonas aeruginosa; [4]
  inhibition zone, Pseudomonas aeruginosa, C: 44 mm
Bacillus cereus; [2]
  inhibition zone, Bacillus Cereus, A: 24 mm
Bacillus cereus; [3]
  inhibition zone, Bacillus Cereus, B: 27 mm
Bacillus cereus; [4]
  inhibition zone, Bacillus Cereus, C: 39 mm
other
  melting point: 284 °C
